Laboratory results: patent publication US20050245397A1, “Use of nickel to correct growth disorders in plants” (priority 2004, published 2005)
Like-named read-outs stand apart in the source and are kept apart here.

What was measured:
[1] = tested on: severely mouse-eared 'Desirable' pecan trees; assay type: in vivo; details: October foliar spray till run-off, NiSO4.6H2O about 3.5 g/L or CuSO4.5H2O about 4 g/L with urea and surfactant, orchard transplants, rated following May, scale 1 = no symptoms to 10 = most severe
[2] = tested on: pecan trees exhibiting severe mouse-ear; assay type: in vivo; details: early April foliar spray at late parachute stage, treatments as in Example 8, orchard transplants, subsequent shoot growth, scale 1-10
[3] = tested on: 1-year-old 'Desirable' pecan seedlings potted in mouse-ear orchard soil; test: October foliar copper or nickel at 0-8X on potted greenhouse pecan seedlings, mouse-ear rated in spring; assay type: in vivo, pecan [Carya illinoinensis (Wangenh.) K. Koch]; details: autumn foliar copper 1X-8X, X = about 1.98 g copper sulfate per liter
[4] = tested on: pecans with mouse-ear; test: Inventors' orchard observations of soil or foliar copper, phosphorus, sulfur on mouse-ear; assay type: in vivo, pecan [Carya illinoinensis (Wangenh.) K. Koch]; details: for effect on mouse-ear, soil application of high amounts: 1st generation orchard site
[5] = tested on: pecan seedlings exhibiting severe nickel deficiency, i.e., mouse-ear; assay type: in vivo, pecan [Carya illinoinensis (Wangenh.) K. Koch]; details: foliar spray in the spring during bud break, tested 0-1000 ppm

O.O.O.O.O.O=S(=O)([O-])[O-].[Cu+2] [Copper, CuSO4.5H2O]
Mouse-ear Severity (Class) [1]: 7.6 a Class | Mouse-ear Severity (Class) ([1]; listed as copper): 7.6 Class | Mouse-ear Severity (Class) [2]: 8.1 a Class | Mouse-ear Severity (Class) ([2]; listed as copper): about 8.1 Class | effect on mouse-ear severity the following spring [3]: failed to correct mouse-ear and actually increased severity of mouse-ear as the concentration of applied copper increased | effect on mouse-ear, soil applied at time of transplanting ([4]; 2nd generation site): corrects mouse-ear on one 2nd generation site | effect on mouse-ear, foliar applications ([4]; in vivo): little or no curative influence on mouse-ear severity | effect on mouse-ear, topical application to the soil ([4]; trees with mild to moderate mouse-ear on a 1st generation site): largely cured of mouse-ear by the 3rd year

[P] [phosphorus]
effect on mouse-ear, soil application of high amounts [4]: corrected mouse-ear symptoms three years after application

S1SSSSSSS1 [sulfur]
effect on mouse-ear, soil application of high amounts [4]: corrected mouse-ear symptoms three years after application

nickel lignosulfonate
nickel concentration at which foliar application corrected mouse-ear / nickel deficiency [5]: ≥ 10 ppm
